Data as given in PubChem BioAssay (NCI).
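Cultured in 96-well plates, cells were exposed to test compound for 48 hours across five concentrations. The concentration for 50% growth inhibition is given as GI50. TGI is the concentration that stops growth completely.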

Experiments:
Test in all cases: DTP human tumour cell line panel, 48 h
EKVX NSCLC = test system: EKVX NSCLC
HT29 colon = test system: HT29 colon
NCI-H460 lung = test system: NCI-H460 lung
SR leukemia = test system: SR leukemia
HL-60(TB) leukemia = test system: HL-60(TB) leukemia
UACC-62 melanoma = test system: UACC-62 melanoma
COLO 205 colon = test system: COLO 205 colon
RXF 393 renal = test system: RXF 393 renal
M14 melanoma = test system: M14 melanoma
OVCAR-4 ovarian = test system: OVCAR-4 ovarian

| SMILES | GI50 (EKVX NSCLC) | TGI (EKVX NSCLC) | GI50 (HT29 colon) | TGI (HT29 colon) | GI50 (NCI-H460 lung) | TGI (NCI-H460 lung) | GI50 (SR leukemia) | TGI (SR leukemia) | GI50 (HL-60(TB) leukemia) | TGI (HL-60(TB) leukemia) | GI50 (UACC-62 melanoma) | TGI (UACC-62 melanoma) | GI50 (COLO 205 colon) | TGI (COLO 205 colon) | GI50 (RXF 393 renal) | TGI (RXF 393 renal) | GI50 (M14 melanoma) | TGI (M14 melanoma) | GI50 (OVCAR-4 ovarian) | TGI (OVCAR-4 ovarian) |
| --- | --- | --- | --- | --- | --- | --- | --- | --- | --- | --- | --- | --- | --- | --- | --- | --- | --- | --- | --- | --- |
| Cn1cc(-c2ccc(CNc3cc(-c4cnc5cc(OCCCN6CCCC6)ccn45)ncn3)cc2)cn1 | 3.01 µM | 9.59 µM | 1.33 µM | 2.72 µM | 1.77 µM | 3.37 µM | 2.17 µM | 7.12 µM | 2.31 µM | 6.94 µM | 13.2 µM | 29.2 µM | 10.6 µM | 25.9 µM | 1.61 µM | 3.33 µM | 1.74 µM | 3.2 µM | 1.88 µM | 3.93 µM |
| O=C1c2ccccc2C(=O)C1C(c1ccc([N+](=O)[O-])cc1)C1C(=O)c2ccccc2C1=O | – | > 100 µM | – | > 100 µM | – | > 100 µM | – | > 100 µM | – | > 100 µM | – | > 100 µM | – | > 100 µM | – | 32.9 µM | – | > 100 µM | – | > 100 µM |
| O=C(Nc1cc(Cl)c(Cl)cc1Cl)C(=O)C(C(=O)c1ccc(Cl)c(Cl)c1)C1OC(=O)c2ccccc21 (stereo unspecified) | – | 58 µM | – | 39.3 µM | – | 10.8 µM | – | > 100 µM | – | 52 µM | – | 33.5 µM | – | 33.8 µM | – | 21.9 µM | – | 27.7 µM | – | 77.8 µM |
| N/N=C(\Cc1ccccc1)NN=C(N)N | – | > 100 µM | – | > 100 µM | – | > 100 µM | – | > 100 µM | – | > 100 µM | – | > 100 µM | – | > 100 µM | – | – | – | > 100 µM | – | > 100 µM |
| COC(=O)C(Cc1nc2ccc(Cl)cc2[nH]c1=O)C(=O)C(=O)Nc1ccccc1[N+](=O)[O-] (stereo unspecified) | – | > 100 µM | – | > 100 µM | – | > 100 µM | – | > 100 µM | – | > 100 µM | – | > 100 µM | – | > 100 µM | – | > 100 µM | – | > 100 µM | – | > 100 µM |
| O=c1oc2ccc(Cl)cc2c(=O)n1-c1ccc(I)cc1F | 0.444 µM | 4.98 µM | 3.41 µM | 22.6 µM | 0.199 µM | > 23.8 µM | 0.228 µM | 5.97 µM | 0.286 µM | 1.36 µM | 0.104 µM | 0.788 µM | 7 µM | 19.7 µM | 0.339 µM | 1.57 µM | 0.165 µM | 1.4 µM | 0.225 µM | > 87.2 µM |
| CC(C)OC(=O)c1ccc2[nH]c(O)c(C(=Nc3ccc(N(C)C(=O)CN4CCN(C)CC4)cc3)c3ccccc3)c2c1 | 1.11 µM | 2.49 µM | 0.28 µM | 3.83 µM | 0.448 µM | 1.89 µM | 0.0443 µM | 0.721 µM | 0.357 µM | 1.18 µM | 1.32 µM | 3.01 µM | 0.285 µM | 1.41 µM | 0.224 µM | 0.652 µM | 0.451 µM | 1.9 µM | 1.02 µM | 2.48 µM |
| C[C@H](CS(C)(=O)=O)Nc1ncc2cc(Oc3ccc(F)cc3F)c(=O)n(C)c2n1 | – | – | > 25 µM | > 25 µM | > 25 µM | > 25 µM | > 25 µM | > 25 µM | > 25 µM | > 25 µM | > 25 µM | > 25 µM | > 25 µM | > 25 µM | > 25 µM | > 25 µM | > 25 µM | > 25 µM | > 25 µM | > 25 µM |
| CC(CCCOC(c1ccccc1)(c1ccccc1)c1ccccc1)OC(=O)Nc1cc([N+](=O)[O-])cc([N+](=O)[O-])c1 (stereo unspecified) | – | 97 µM | – | > 100 µM | – | 73.2 µM | – | > 100 µM | – | 85.3 µM | – | 50.2 µM | – | – | – | > 100 µM | – | > 100 µM | – | > 100 µM |
| C/C=C(/CCCCNCCCC)[Si](C)(C)C | – | 25.8 µM | – | 14.7 µM | – | 31.9 µM | – | 35.1 µM | – | – | – | 32.7 µM | – | 27.9 µM | – | 21 µM | – | 27.7 µM | – | – |
| O=C1CC2C(=O)N(Cc3ccccc3)C1C(S(=O)(=O)c1ccccc1)C2S(=O)(=O)c1ccccc1 (stereo unspecified) | – | – | – | 5.1 µM | – | 34.9 µM | – | 10.5 µM | – | 3.51 µM | – | 5.22 µM | – | 3.18 µM | – | 3.5 µM | – | 4.22 µM | – | 4.74 µM |
| COc1cnc2c(c1)C(=O)c1c-2n(CCCN2CCCC2)c(=O)c2cc(Cl)ccc12 | 2.18 µM | 11.3 µM | 0.161 µM | 7.94 µM | 0.0217 µM | 5.51 µM | 0.0499 µM | 7.9 µM | 6.23 µM | 15.2 µM | – | – | 0.161 µM | 8.22 µM | 0.705 µM | 5.82 µM | 0.872 µM | 11.8 µM | 1.43 µM | 11.2 µM |
| COc1ccc2c(C(=O)O)cc3cc(OC)c(OC)cc3c2c1 | – | > 100 µM | – | > 100 µM | – | > 100 µM | – | > 100 µM | – | > 100 µM | – | > 100 µM | – | > 100 µM | – | > 100 µM | – | > 100 µM | – | – |
| N#CC1C(N)=NNC12Nc1ccccc1N2 (stereo unspecified) | 14.9 µM | 64.6 µM | – | – | 13.6 µM | 38.1 µM | 6.4 µM | 36.8 µM | 52.4 µM | > 100 µM | 3.28 µM | 33.8 µM | 16.5 µM | 48.9 µM | 0.335 µM | 7.27 µM | 65.9 µM | > 100 µM | 18 µM | 92.3 µM |
| Cc1ccc2c(c1)ncn2-c1ncnc2c1CC(C)c1ccccc1N2C (stereo unspecified) | 0.154 µM | 18 µM | 0.0922 µM | 14.5 µM | 0.225 µM | 11.3 µM | 0.0362 µM | 1.98 µM | 0.0282 µM | 0.0781 µM | – | – | 0.198 µM | 0.666 µM | 0.0577 µM | 16.4 µM | 0.0587 µM | 14.1 µM | 0.624 µM | 24.7 µM |
| C=C(C)[C@@H]1CC[C@@]2(C)[C@H]1[C@H]1CCC3[C@@]4(C)CC[C@H](O)C(C)(C)[C@@H]4CC[C@@]3(C)[C@]1(C)C[C@@H]2O (stereo partly specified) | – | > 100 µM | – | > 100 µM | – | > 100 µM | – | > 100 µM | – | > 100 µM | – | – | – | – | – | > 100 µM | – | > 100 µM | – | – |
| CN(C)c1ccc(C(N)=O)cn1 | – | > 100 µM | – | > 100 µM | – | > 100 µM | – | > 100 µM | – | > 100 µM | – | > 100 µM | – | > 100 µM | – | > 100 µM | – | – | – | – |
